In publication PMC7366380, “Discovery of a Potent and Selective Covalent Inhibitor and Activity-Based Probe for the Deubiquitylating Enzyme UCHL1, with Antifibrotic Activity” (Journal of the American Chemical Society, 2020) one finds IC50 data, which are given here for four molecules.

The target in experiment [1] is T1, UCHL1 (Homo sapiens, UniProt P09936).
T1 sequence (P09936 1-223): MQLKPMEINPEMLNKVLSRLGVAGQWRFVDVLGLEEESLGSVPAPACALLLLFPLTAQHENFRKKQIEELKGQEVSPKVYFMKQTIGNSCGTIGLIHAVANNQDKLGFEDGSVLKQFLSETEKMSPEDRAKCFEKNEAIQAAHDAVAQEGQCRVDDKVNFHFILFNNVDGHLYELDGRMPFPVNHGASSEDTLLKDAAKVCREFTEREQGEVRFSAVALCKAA
The experiment is described as follows: biochemical.

The target of experiment [2] is T2, Cezanne1 (Homo sapiens, UniProt Q6GQQ9).
T2 sequence (Q6GQQ9 1-843): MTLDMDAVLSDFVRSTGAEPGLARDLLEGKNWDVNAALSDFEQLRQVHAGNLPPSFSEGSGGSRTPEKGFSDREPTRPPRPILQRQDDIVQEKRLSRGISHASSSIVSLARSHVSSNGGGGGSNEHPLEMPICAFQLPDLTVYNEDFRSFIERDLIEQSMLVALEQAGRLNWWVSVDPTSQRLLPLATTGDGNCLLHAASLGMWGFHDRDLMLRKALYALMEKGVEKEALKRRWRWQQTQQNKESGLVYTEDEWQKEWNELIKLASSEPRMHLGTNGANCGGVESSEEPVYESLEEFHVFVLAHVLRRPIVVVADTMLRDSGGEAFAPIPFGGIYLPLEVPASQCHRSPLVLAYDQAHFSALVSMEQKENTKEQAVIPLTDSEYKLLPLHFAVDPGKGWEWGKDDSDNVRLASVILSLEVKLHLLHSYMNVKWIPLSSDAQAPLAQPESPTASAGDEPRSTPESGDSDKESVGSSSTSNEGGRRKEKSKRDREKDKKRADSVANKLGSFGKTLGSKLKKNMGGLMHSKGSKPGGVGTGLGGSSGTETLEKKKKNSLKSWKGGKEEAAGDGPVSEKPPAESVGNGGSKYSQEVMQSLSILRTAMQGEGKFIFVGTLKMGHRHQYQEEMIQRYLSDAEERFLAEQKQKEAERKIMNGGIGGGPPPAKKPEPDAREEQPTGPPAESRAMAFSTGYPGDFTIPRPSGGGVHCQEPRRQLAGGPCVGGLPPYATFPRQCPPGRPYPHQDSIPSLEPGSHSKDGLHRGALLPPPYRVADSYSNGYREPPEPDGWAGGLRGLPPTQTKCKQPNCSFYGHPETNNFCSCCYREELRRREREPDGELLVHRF
The experiment is described as follows: Biochemical DUB selectivity profiling assay: Cezanne1. The note with it: Ub-Lys-TAMRA 50 nM, buffer B; read-out: Biochemical IC50 range, Cezanne1. Here is the method: (§1) DUB Assay Substrate Substrate
(§2) Buffer Concentration (nM) […]
(§3) Sepharose® 4B resin (GE Healthcare).
(§4) 10 kDa molecular weight cut-off (MWCO)).
(§5) Fractions containing protein
(§6) Protein concentration was […]
(§7) reaction volume of 21 μL. […]
(§8) compound (final concentration 5 nM).
(§9) IC50 values were determined
(§10) Biochemical DUB selectivity profiling assays […]
(§11) in 40 µL total reaction volume.

In experiment [3] the target is T3, USP19 (Homo sapiens, UniProt O94966).
T3 sequence (O94966 1-1318): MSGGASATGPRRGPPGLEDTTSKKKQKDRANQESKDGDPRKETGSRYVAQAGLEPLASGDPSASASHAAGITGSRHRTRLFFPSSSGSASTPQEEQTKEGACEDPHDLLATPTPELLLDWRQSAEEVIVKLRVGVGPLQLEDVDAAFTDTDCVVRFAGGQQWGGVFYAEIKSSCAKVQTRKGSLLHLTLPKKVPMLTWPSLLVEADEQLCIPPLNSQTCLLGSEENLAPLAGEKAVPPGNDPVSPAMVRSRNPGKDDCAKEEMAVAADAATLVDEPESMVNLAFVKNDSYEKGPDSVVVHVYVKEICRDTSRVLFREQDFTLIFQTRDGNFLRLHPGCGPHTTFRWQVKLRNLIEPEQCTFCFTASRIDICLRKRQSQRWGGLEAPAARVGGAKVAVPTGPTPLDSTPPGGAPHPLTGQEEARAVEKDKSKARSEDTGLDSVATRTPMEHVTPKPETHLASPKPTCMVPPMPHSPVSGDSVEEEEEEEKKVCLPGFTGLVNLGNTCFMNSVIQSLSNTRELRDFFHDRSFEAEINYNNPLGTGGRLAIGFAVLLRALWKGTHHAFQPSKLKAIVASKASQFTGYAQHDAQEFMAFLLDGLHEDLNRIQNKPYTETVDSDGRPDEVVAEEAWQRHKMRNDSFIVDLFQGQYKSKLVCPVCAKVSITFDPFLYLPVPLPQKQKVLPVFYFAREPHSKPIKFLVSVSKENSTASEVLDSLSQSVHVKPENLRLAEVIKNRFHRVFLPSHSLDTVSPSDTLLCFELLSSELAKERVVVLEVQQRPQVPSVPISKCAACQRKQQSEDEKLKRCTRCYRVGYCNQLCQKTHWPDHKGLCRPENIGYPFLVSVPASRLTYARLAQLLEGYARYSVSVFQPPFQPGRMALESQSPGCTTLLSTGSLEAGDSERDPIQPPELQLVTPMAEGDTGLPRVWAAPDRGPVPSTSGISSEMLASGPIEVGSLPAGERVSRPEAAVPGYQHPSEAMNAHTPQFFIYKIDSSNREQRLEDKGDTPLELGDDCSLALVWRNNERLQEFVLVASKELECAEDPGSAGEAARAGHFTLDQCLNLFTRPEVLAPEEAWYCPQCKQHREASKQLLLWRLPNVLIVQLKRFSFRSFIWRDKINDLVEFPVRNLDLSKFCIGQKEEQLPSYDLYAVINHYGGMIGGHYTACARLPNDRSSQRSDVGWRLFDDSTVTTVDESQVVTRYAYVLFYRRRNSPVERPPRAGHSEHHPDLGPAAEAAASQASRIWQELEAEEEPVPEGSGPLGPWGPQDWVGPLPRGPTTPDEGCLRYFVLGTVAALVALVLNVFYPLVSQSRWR
The experiment is described as follows: Biochemical DUB selectivity profiling assay: USP19. The note with it: Ub-Lys-TAMRA 50 nM, buffer A; read-out: Biochemical IC50 range, USP19. As for the experimental part:
as §1, §2, §3, §4, §5, §6, §7, §8, §9, §10, §11

[4] abbreviates: Biochemical IC50 range, UCHL1, Ub-Lys-TAMRA 50 nM, buffer A.
[5] abbreviates: UCHL1 IC50 (FP, 95% CI), UCHL1 5 nM, 30 min preincubation, Ub-Lys-TAMRA 50 nM.

Turning to `N#CN1CCC[C@H]1C(=O)N1CCc2c(-c3c[nH]c4ncccc34)cccc21` [Compound 1], the IC50 in experiment [1] (setting [4]) is less than 100 nM; in experiment [1] (setting [5]), 90 nM; in experiment [2], greater than 10 µM; in experiment [3], greater than 10 µM.
Take `C#Cc1cnc2[nH]cc(-c3cccc4c3CCN4C(=O)[C@@H]3CCCN3C#N)c2c1` [Compound 2]: the IC50 was less than 100 nM in experiment [1] (setting [4]), 38 nM in experiment [1] (setting [5]), greater than 10 µM in experiment [2] and greater than 10 µM in experiment [3].
On to `N#CN1CCC[C@@H]1C(=O)N1CCc2c(-c3c[nH]c4ncccc34)cccc21` [Compound 3], for which the IC50 in experiment [1] (setting [4]) was greater than 10000 nM; in experiment [1] (UCHL1 IC50 (FP), UCHL1 5 nM, 30 min preincubation, Ub-Lys-TAMRA 50 nM, bound = maximum assay concentration) it was greater than 100000 nM; in experiment [2], greater than 10 µM; in experiment [3], greater than 10 µM.
`CC(=O)O/N=C1\C(=O)N(Cc2cc(Cl)ccc2Cl)c2ccc(Cl)cc21` [LDN-57444, reference compound]: the IC50 in experiment [2] and in experiment [3] was greater than 10 µM each time.

A word on the IC50: it is the midpoint of a concentration-inhibition curve.
